Patent US20230022200A1, “DRUG THAT PREVENTS DIALYSIS SHIFT OR RENAL DEATH” (Toray Industries, Inc., priority 2019, published 2023)
Like-named read-outs stand apart in the source and are kept apart here.

Key:
[1] = test system: chronic renal failure patients with primary glomerular disease and nephrosclerosis as primary diseases; test: CASSIOPEIR trial: time to dialysis shift or renal death, hazard ratio of drug and placebo by Cox proportional hazard model; format: in vivo, human
Procedure: For the analysis, the full analysis set and Intention-To-Treat (ITT) defined in Nakamoto et al., BMC Nephrology were used, and the hazard ratio (HR) of the drug and placebo was calculated by the Cox proportional hazard model. A lower HR value indicates a higher effectiveness of the drug.
A data set obtained in the CASSIOPEIR trial according to the protocol described in Nakamoto et al., BMC Nephrology was used. Summarizing the protocol of the CASSIOPEIR trial, the targets are chronic renal failure patients with primary glomerular disease and nephrosclerosis as primary diseases, and a BPS sustained-release tablet, TRK-100STP (the same preparation as Careload (trademark) LA Tablets 60 μg (Toray Industries, Inc.)), is administered at 120 μg or 240 μg as BPS per day in two divided doses, morning and evening. Further, this trial was a multicenter, randomized, placebo-controlled, double-blind comparative trial, and carried out in Japan, China, South Korea, Taiwan, Hong Kong, Malaysia, and Thailand.
The duration of drug administration was 2 to 4 years, and the number of patients underwent randomization was 892, and the trial was conducted in 160 sites. Further, the ITT population was the primary analysis target population. The primary endpoint was the time to occurrence of the renal composite endpoint defined by doubling of serum creatinine or end-stage renal disease. The guidelines (2013) of the Japanese Society for Dialysis Therapy were used as a reference to determine the time to shift to dialysis. Specifically, according to the policy that “even with adequate conservative treatment, progressive deterioration of renal function is observed, and the need arises when GFR<15 ml/min/1.73 m^2. However, the introduction of actual blood dialysis is determined by comprehensively judging the symptoms of renal failure, activity in daily life, and nutritional status, and a decision is made when these cannot be avoided except by dialysis therapy,” and finally based on the judgment of the investigator, the time to shift to dialysis and the time to reach renal death were determined. The term “dialysis” as used herein includes peritoneal dialysis, in addition to blood dialysis.

[2] = test system: chronic renal failure patients with primary glomerular disease and nephrosclerosis as primary diseases; conditions: whole trial, serum creatinine 2.0 to 4.5 mg/dl at entry; 120 μg or 240 μg BPS administration group; cited from earlier work
[3] = cited from earlier work
[4] = test system: chronic renal failure patients with primary glomerular disease and nephrosclerosis as primary diseases; conditions: twice a day for 6 months, cited from earlier work
[5] = test system: patients with chronic renal failure; conditions: cited from earlier work
renal failure model rats = conditions: rat, in vivo; cited from earlier work
[6] = test system: cats with spontaneous chronic kidney disease; conditions: in vivo; cited from earlier work
[7] = test system: chronic renal failure rat models; conditions: combined use with ARBs and ACEIs; cited from earlier work

Structure (SMILES): CC#CCC(C)[C@H](O)/C=C/[C@@H]1[C@H]2c3cccc(CCCC(=O)[O-])c3O[C@H]2C[C@H]1O.[Na+] (stereo partly drawn) [BPS, Beraprost sodium]
- HR, time to dialysis shift ([1]; 240 μg per day, ACEI used in combination (except patients who further used ARB), all subjects, P value 0.0994): 0.60
- HR, time to dialysis shift ([1]; 240 μg per day, ACEI used in combination, Japanese patients, P value 0.0882): 0.49
- HR, time to dialysis shift ([1]; 240 μg, ARB in combination, no ACEI, Japanese partial population, P value 0.3597): 0.79
- HR, time to dialysis shift ([1]; 240 μg, ARB in combination, no ACEI, P value 0.5401): 0.88
- HR, dialysis shift ([1]; Japanese patients, BMI less than 23, 240 μg, P value 0.0048): 0.38
- HR, dialysis shift ([1]; Japanese patients, BMI less than 23 and serum albumin less than 3.8 g/dl): 0.29
- HR, dialysis shift ([1]; Japanese patients, serum albumin less than 3.8 g/dl, 240-μg administration, P value 0.1567): 0.50
- HR, time to dialysis shift ([1]; plasma BPS 50 pg/ml or more confirmed, eGFR 15 or more and less than 45 ml/min/1.73 m^2 (CKD stages 3b and 4), P value 0.0368): 0.59
- HR, time to dialysis shift ([1]; plasma BPS 50 pg/ml or more confirmed, serum creatinine less than 3 mg/dl, P value 0.0251): 0.46
- renal composite endpoints and time to shift to dialysis [2]: not minimized at all
- Cmax and AUC in renal damage patients compared to healthy subjects ([3]; Shimamura et al.): elevated
- half-life in blood ([3]; in vivo): about 1 hour
- increase in serum creatinine level during the administration period compared to before the start of administration ([4]; 120-μg group): 1.069 times
- increase in serum creatinine level during the administration period compared to before the start of administration ([4]; 240-μg group): 1.064 times
- slope of the time-varying straight line of the reciprocal of the serum creatinine level ([5]; 20 μg per dose three times a day for 6 months): becomes gentle
- shift to dialysis ([5]; serum creatinine 1.9 mg/dl or less before start, 20 μg three times a day): did not shift to dialysis for up to 54 months
- effect of BPS ([5]; serum creatinine 2.2 mg/dl or more (within the 1.9 to 2.8 mg/dl group)): not observed
- time to shift to dialysis ([5]; serum creatinine 2.8 mg/dl or more before start, 20 μg three times a day): ≤ 24 months
- renal tissue damage (renal failure model rats): reduces renal tissue damage
- serum creatinine levels (renal failure model rats): suppresses the increase in serum creatinine levels
- renal function [6]: suppresses the decline in renal function
- effect of angiotensin inhibitors to suppress the progression of renal damage (increase in serum creatinine levels) [7]: enhances the effect of the angiotensin inhibitors

Structure (SMILES): CC#CC[C@H](C)[C@H](O)/C=C/[C@@H]1[C@H]2c3cccc(CCCC(=O)[O-])c3O[C@H]2C[C@H]1O.[Na+] [BPS-314d, sodium (+)-(1R,2R,3aS,8b S)-2,3,3a,8b-tetrahydro-2-hydroxy-1-[(E)-(3S,4S)-3-hydroxy-4-methyl-1-octen-6-ynyl]-1H-cyclopenta[b]benzofuran-5-butyrate]
- Cmax of BPS-314d in plasma relative to BPS ([3]; when BPS is administered to a human): ¼
- AUC of BPS-314d in plasma relative to BPS ([3]; when BPS is administered): ¼
